Test results: article PMC5149029, “New Aspects of Silibinin Stereoisomers and their 3-O-galloyl Derivatives on Cytotoxicity and Ceramide Metabolism in Hep G2 hepatocarcinoma Cell Line” (Iranian Journal of Pharmaceutical Research : IJPR, 2016)

Key:
[1] = target: T1, glucosyl ceramide synthase (GCS) (Homo sapiens, UniProt Q16739); assay: GCS activity assay (C6-NBD-ceramide, HPLC); format: cell-based; details: for GCS activity, effect of treatment: Hep G2, 0-200 µM
T1 construct: endogenous in cells; host or cells: Hep G2
T1 sequence (Q16739 1-394): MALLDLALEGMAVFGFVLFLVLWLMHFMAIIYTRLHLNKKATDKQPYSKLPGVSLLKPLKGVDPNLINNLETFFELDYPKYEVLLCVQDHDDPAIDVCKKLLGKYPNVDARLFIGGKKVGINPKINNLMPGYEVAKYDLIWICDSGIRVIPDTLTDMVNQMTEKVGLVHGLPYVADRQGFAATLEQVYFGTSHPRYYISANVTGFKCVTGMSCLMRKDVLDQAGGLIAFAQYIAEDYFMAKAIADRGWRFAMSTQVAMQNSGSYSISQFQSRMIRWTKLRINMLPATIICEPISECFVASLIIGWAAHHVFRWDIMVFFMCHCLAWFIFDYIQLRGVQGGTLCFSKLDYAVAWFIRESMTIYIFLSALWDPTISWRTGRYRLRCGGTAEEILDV
Method: (§1) The cell line was grown in RPMI-1640 medium supplemented with L-glutamine 2 mM, HEPESNa 25 mM, penicillin 100 U/mL, streptomycin 100 μg/mL and 10% […] (FBS) at 37 °C in a humidified atmosphere containing 5% CO2. Hep G2 cells were seeded at 1 × 10^6 cells/mL and sub cultured every 2–3 days after 60–80% confluence was reached. To prepare the lysates cells attached to the culture plate were scraped off with a cell scraper and collected in a 1.5 mL tube by centrifugation. The cell pellets were rinsed with PBS, suspended in sterile water, and then lysed by sonication. For each experiment, the cells were treated separately with increasing concentrations of silibinin derivatives (0, 25, 50, 75, 100, 125, 150, 175 and 200 μM) and incubated for 48 h.
To determine GCS activities, the fluorescent acceptor substrate C6-4-nitrobenzo-2-oxa-1,3-diazole (NBD)-ceramide and a normal-phase HPLC were used. Acceptor substrate, 50 pM of C6-NBD-Cer and 6.5 nM of lecithin were mixed in 100 µL of ethanol and then the solvent was evaporated. Next, 10 µL of water was added and the mixture was sonicated to form liposomes. For the GCS assay, 50 µL of reaction mixture contains 500 µM UDP-Glc, 1mM EDTA, 10 µL of C6-NBD-Cer liposome and 20 µL of an appropriate amount of enzyme in lysis buffer. Addition of conduritol B epoxide (CBE) at 2.5 mM is effective at inhibiting the glycosidase activity. Standard assays were carried out at 37 °C for 1 h. The reaction was stopped by adding 200 µL of chloroform/methanol (2:1, v/v). After a few seconds of vortexing, 5 µL of 500 µM KCl was added and then centrifuged. After the organic phase had dried up, lipids were dissolved in 200 µL of isopropyl alcohol/n-hexane/H2O (55:44:1) and then transferred to a glass vial in auto sampler. A 100 µL aliquot of sample was automatically loaded onto a normal-phase column (Intersil SIL 150A-5, 4.6 x 250 mm, GL Sciences, Japan) and eluted with isopropyl alcohol/n-hexane/H2O (55:44:1) at a flow rate of 2.0 mL/min. Fluorescence was determined using a fluorescent detector (Hitachi L-7480) set to excitation and emission wavelengths of 470 and 530 nm, respectively. The fluorescent peaks were identified by comparing their retention times with those of standards ([37]).

Hep G2 cells = assay: Quantifying of total ceramide (HPLC, NDA derivatisation); format: cell-based, human; details: for Ceramide content with respect to control: Hep G2, 50 µM and higher concentrations
Method: as §1
Sample (3 µL of cell extract cell lysate) was mixed with 3 µL of an ACDase assay solution (0.2 M citrate–phosphate buffer, pH 4.5, 0.3 M NaCl, 0.2% Igepal CA-630, 10% FBS, 50 ng/µL ACDase) and incubated at 37 °C for 1 h. The reaction was stopped by adding ethanol (1:5) and centrifuged for 5 min at 13,000 × g. 10 µL of the supernatant was transferred into 20 µL of 25 mM sodium borate buffer (pH 9.0) containing 1.25 mM sodium cyanide and 1.25 mM NDA. The reaction mixture was incubated at 50 °C for 10min, diluted with ethanol (1:4), and centrifuged for 5 min at 13,000 × g. 5 µL of the supernatant was applied to high-performance liquid chromatography (HPLC) for analysis. The HPLC system consisted of Waters 600 S controller, 616 pump, 474 scanning fluorescence detector, 717 auto sampler (Waters, Milford, MA) and BetaBasic-C18 (20 cm × 4.6 mm) column with 3 µM particle size (Thermo Electron, Bellefonte, PA) which was not temperature regulated. All chromatographic procedures were carried out at room temperature using a mobile phase of 90% methanol at a flow rate of 1.0 mL/min. The fluorescent derivatives were monitored at the excitation wavelength of 252 nm and the emission wavelength of 483 nm ([35]). […]

Row | GCS activity, effect of treatment [1] | GCS activity (% of control) ([1]; Hep G2, 200 µM) | SMILES | Ceramide content with respect to control (Hep G2 cells) | Maximum ceramide level compared to control (Hep G2 cells; Hep G2, 200 µM (the highest dose))
1 | dose dependent inhibition |  | COc1cc([C@H]2Oc3cc([C@H]4Oc5cc(O)cc(O)c5C(=O)[C@@H]4O)ccc3O[C@@H]2CO)ccc1O [SA, silybin A] |  | 
2 | dose dependent inhibition |  | COc1cc([C@@H]2Oc3cc([C@H]4Oc5cc(O)cc(O)c5C(=O)[C@@H]4O)ccc3O[C@H]2CO)ccc1O [SB, silybin B] |  | 
3 | did not indicate any significant changes |  | COc1cc([C@H]2Oc3cc([C@H]4Oc5cc(O)cc(O)c5C(=O)[C@@H]4OC(=O)c4cc(O)c(O)c(O)c4)ccc3O[C@@H]2CO)ccc1O [SGA, 3-O-galloyl silybin A] | significant rises | 
4 | dose dependent inhibition | 18 % of control | COc1cc([C@@H]2Oc3cc([C@H]4Oc5cc(O)cc(O)c5C(=O)[C@@H]4OC(=O)c4cc(O)c(O)c(O)c4)ccc3O[C@H]2CO)ccc1O [SGB, 3-O-galloyl silybin B] | significant rises | approximately 3.7 fold
